Data from publication PMC9934367, “Functional impact of subunit composition and compensation on Drosophila melanogaster nicotinic receptors–targets of neonicotinoids” (PLOS Genetics, 2023).

Key:
D. melanogaster nAChRs = assay: Comparison of agonist activity between nAChRs expressed in X. laevis oocytes (one-way ANOVA, Kruskal-Wallis); type: cell-based
Procedure: (§1) We minimised the use of X. laevis according to the UK Animals (Scientific Procedures) Act, 1986. […] Oocytes were defolliculated after collagenase treatment in Ca^2+-free standard oocyte saline (Ca^2+-free SOS). cRNAs of the nAChR subunits and co-factors mixed at a concentration of 0.1 mg/mL was injected into oocytes at a volume of 50 nL. Then the oocytes were incubated in the incubation medium (SOS supplemented with sodium pyruvate (Nacalai Tesque, #13058–12), penicillin-streptomycin (MilliporeSigma, #P4333), gentamycin (Nacalai Tesque, #16672–04), and 4% horse serum (Thermo Fisher Scientific, #26050–070) for 3−4 days prior to electrophysiology.
(§2) Each defolliculated X. laevis oocyte was secured in a Perspex recording chamber and perfused with the standard oocyte saline (SOS) containing 0.5 μM atropine (SOSA) at a flow rate of 7−10 mL/min [48]. Two glass electrodes filled with 2 M KCl were impaled into each oocyte and the membrane potential was clamped at -100 mV. […] The peak amplitude of the response was measured and analysed by pCLAMP (Molecular Devices, USA).
(§3) Y=Imax/1+10^(logEC50‐X)nH
(§4) Where Y is the normalised response, X is log[ligand (M)], EC50 is the half maximal concentration (M), Imax is the maximum normalised response and nH is the Hill coefficient.
Prism software was employed for the statistical analyses. […] One-way ANOVA was used to analyse the differences of the ligand agonist activity in terms of pEC50 on the various nAChRs expressed in X. laevis as well as data obtained with D. melanogaster larvae and adults.

D. melanogaster = settings: Dα2 knockout; cited from earlier work
Dα3/Dβ1 nAChR = molecular target: T1, Dα3/Dβ1 nAChR (Drosophila melanogaster, UniProt P04755+Q9W3G6); assay: cell-based; type: cell-based, D. melanogaster
T1 construct: Dβ1 (NP_523927); expressed in transfected cells; host or cells: Xenopus laevis oocytes (cRNA injection)
Procedure: (§5) cDNAs of the nAChR subunits and co-factors were cloned into pcDNA3.1 (+) vector (Thermo Fisher Scientific). The accession numbers of the nAChR subunits and cofactors are as follows: Dα1 (NP_524481), Dα2 (NP_524482), Dα3 (NP_525079), Dα4 (CAB77445), Dβ1 (NP_523927), Dβ2 (NP_524483), Dβ3 (NP_525098), DmRIC-3 (CAP16647), DmUNC-50 (NP_649813), and DmTMX3 (NP_648847). cRNAs were prepared using the mMESSAGE mMACHINE T7 ULTRA Transcription Kit (Thermo Fisher Scientific, #AM1345) according to the manual with the cDNA template which was cut with appropriate restriction enzymes at the 3’ end of the cDNA.
as §1, §2, §3, §4

Dα2/Dα3/Dβ1 nAChR = molecular target: T2, Dα2/Dα3/Dβ1 nAChR (Drosophila melanogaster, UniProt P04755+P17644+Q9W3G6); assay: Voltage-clamp electrophysiology, nAChR expressed in X. laevis oocytes; type: cell-based, D. melanogaster
T2 construct: Dα2 (NP_524482); Dβ1 (NP_523927); expressed in transfected cells; host or cells: Xenopus laevis oocytes (cRNA injection)
Procedure: as §5, §1, §2, §3, §4

Dα3/Dβ1/Dβ2 nAChR = molecular target: T3, Dα3/Dβ1/Dβ2 nAChR (Drosophila melanogaster, UniProt P04755+P25162+Q9W3G6); assay: as above; type: cell-based, D. melanogaster
T3 construct: Dβ1 (NP_523927); Dβ2 (NP_524483); expressed in transfected cells; host or cells: Xenopus laevis oocytes (cRNA injection)
Procedure: as §5, §1, §2, §3, §4

Dα1/chicken β2 nAChR = settings: cited from earlier work
Dα2/chicken β2 nAChR = settings: cited from earlier work

## N#C/N=C1\SCCN1Cc1ccc(Cl)nc1 [Thiacloprd]
D. melanogaster nAChRs; Dα1/Dα2/Dα3/Dβ1/Dβ2 vs. Dα1/Dα2/Dα4/Dβ1/Dβ2
  Difference of Imax values, nAChRs compared: -0.007
D. melanogaster nAChRs; Dα1/Dα2/Dα3/Dβ1/Dβ2 vs. Dα1/Dα2/Dβ1/Dβ2/Dβ3
  Difference of Imax values, nAChRs compared: 0.036
D. melanogaster nAChRs; Dα1/Dα2/Dα3/Dβ1/Dβ2 vs. Dα1/Dα3/Dα4/Dβ1/Dβ2
  Difference of Imax values, nAChRs compared: 0.033
D. melanogaster nAChRs; Dα1/Dα2/Dα3/Dβ1/Dβ2 vs. Dα1/Dα3/Dβ1/Dβ2/Dβ3
  Difference of Imax values, nAChRs compared: -0.030
D. melanogaster nAChRs; Dα1/Dα2/Dα3/Dβ1/Dβ2 vs. Dα2/Dα3/Dα4/Dβ1/Dβ2
  Difference of Imax values, nAChRs compared: 0.041
D. melanogaster nAChRs; Dα1/Dα2/Dα3/Dβ1/Dβ2 vs. Dα2/Dα3/Dβ1/Dβ2/Dβ3
  Difference of Imax values, nAChRs compared: 0.049

## CCN(Cc1ccc(Cl)nc1)/C(=C/[N+](=O)[O-])NC [nitenpyram]
D. melanogaster
  sensitivity in larvae, effect of knockout: enhanced

## α-Bungarotoxin [α-BTX]
Dα3/Dβ1 nAChR
  blocking effect on ACh-induced response: minimal blocking effect
Dα2/Dα3/Dβ1 nAChR
  blocking effect on ACh-induced response: minimal blocking effect
Dα3/Dβ1/Dβ2 nAChR
  blocking effect on ACh-induced response: minimal blocking effect
Dα1/chicken β2 nAChR
  sensitivity to α-BTX: sensitive
Dα2/chicken β2 nAChR
  sensitivity to α-BTX: resistant
